Test results published in PubChem BioAssay AID1918996 (Molecular Pharmacology Branch, DTP, NCI, 2023).

Tested on: 349418-098-R-PDC complex spheroid growth
Assay: Anticancer human tumor 349418-098-R-PDC patient-derived lung adenocarcinoma cell line growth inhibition [AhR]
Details: for IC50: curve of first compound; for viability, T/C: stronger effect = lower value
In short: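 Agents were dosed in half-log steps down from roughly clinical Cmax, or from 10 microM where Cmax was unknown, alone and with AhR antagonists. Read-out: percent test/control growth of tumor spheroids containing HUVEC and MSC stromal cells.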

[1] = second compound 0.1 µM, first compound 0.0316 µM
[2] = second compound 0.1 µM, first compound 0.1 µM
[3] = second compound 0.1 µM, first compound 0.316 µM
[4] = second compound 0.1 µM, first compound 1 µM
[5] = second compound 0.316 µM, first compound 0.0316 µM
[6] = second compound 0.316 µM, first compound 0.1 µM
[7] = second compound 0.316 µM, first compound 0.316 µM
[8] = second compound 0.316 µM, first compound 1 µM
[9] = second compound 1 µM, first compound 0.0316 µM
[10] = second compound 1 µM, first compound 0.1 µM
[11] = second compound 1 µM, first compound 0.316 µM
[12] = second compound 1 µM, first compound 1 µM
[13] = second compound 3.16 µM, first compound 0.0316 µM
[14] = second compound 3.16 µM, first compound 0.1 µM
[15] = second compound 3.16 µM, first compound 0.316 µM
[16] = second compound 3.16 µM, first compound 1 µM
[17] = second compound 10 µM, first compound 0.0316 µM
[18] = second compound 10 µM, first compound 0.1 µM
[19] = second compound 10 µM, first compound 0.316 µM
[20] = second compound 10 µM, first compound 1 µM
[21] = second compound 0.1 µM, first compound 3.16 µM
[22] = second compound 0.1 µM, first compound 10 µM
[23] = second compound 0.316 µM, first compound 3.16 µM
[24] = second compound 0.316 µM, first compound 10 µM
[25] = second compound 1 µM, first compound 3.16 µM
[26] = second compound 1 µM, first compound 10 µM
[27] = second compound 3.16 µM, first compound 3.16 µM
[28] = second compound 3.16 µM, first compound 10 µM
[29] = second compound 10 µM, first compound 3.16 µM
[30] = second compound 10 µM, first compound 10 µM
[31] = second compound 0.1 µM, first compound 0.00949 µM
[32] = second compound 0.1 µM, first compound 0.03 µM
[33] = second compound 0.1 µM, first compound 0.0949 µM
[34] = second compound 0.1 µM, first compound 0.3 µM
[35] = second compound 0.316 µM, first compound 0.00949 µM
[36] = second compound 0.316 µM, first compound 0.03 µM
[37] = second compound 0.316 µM, first compound 0.0949 µM
[38] = second compound 0.316 µM, first compound 0.3 µM
[39] = second compound 1 µM, first compound 0.00949 µM
[40] = second compound 1 µM, first compound 0.03 µM
[41] = second compound 1 µM, first compound 0.0949 µM
[42] = second compound 1 µM, first compound 0.3 µM
[43] = second compound 3.16 µM, first compound 0.00949 µM
[44] = second compound 3.16 µM, first compound 0.03 µM
[45] = second compound 3.16 µM, first compound 0.0949 µM
[46] = second compound 3.16 µM, first compound 0.3 µM
[47] = second compound 10 µM, first compound 0.00949 µM
[48] = second compound 10 µM, first compound 0.03 µM
[49] = second compound 10 µM, first compound 0.0949 µM
[50] = second compound 10 µM, first compound 0.3 µM
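Further: spheroids exposed to agents for seven days before luminescence viability read.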
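Wherever viability, T/C is given: spheroids also contain HUVEC endothelial cells and human MSC stroma.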

CC1COCCN1c1cc(-c2ccnn2C)c2ccnc(-c3ccn[nH]3)c2n1 (stereo not given) + Cc1ccccc1N=Nc1ccc(NC(=O)c2ccnn2C)c(C)c1
IC50 (second compound 0.1 µM): 71.3 nM
IC50 (second compound 0.316 µM): 102 nM
IC50 (second compound 1 µM): 72.5 nM
IC50 (second compound 3.16 µM): 70.7 nM
IC50 (second compound 10 µM): 39.1 nM
viability, T/C (second compound 0.1 µM, first compound 0.00316 µM): 84.5%
viability, T/C (second compound 0.1 µM, first compound 0.01 µM): 96.5%
viability, T/C [1]: 61%
viability, T/C [2]: 47.9%
viability, T/C [3]: 13.9%
viability, T/C [4]: 10.5%
viability, T/C (second compound 0.316 µM, first compound 0.00316 µM): 64.4%
viability, T/C (second compound 0.316 µM, first compound 0.01 µM): 96.8%
viability, T/C [5]: 81%
viability, T/C [6]: 50.3%
viability, T/C [7]: 15.6%
viability, T/C [8]: 10.4%
viability, T/C (second compound 1 µM, first compound 0.00316 µM): 107%
viability, T/C (second compound 1 µM, first compound 0.01 µM): 111%
viability, T/C [9]: 78.6%
viability, T/C [10]: 39.4%
viability, T/C [11]: 15.8%
viability, T/C [12]: 11.3%
viability, T/C (second compound 3.16 µM, first compound 0.00316 µM): 61.6%
viability, T/C (second compound 3.16 µM, first compound 0.01 µM): 78.2%
viability, T/C [13]: 76.2%
viability, T/C [14]: 40.5%
viability, T/C [15]: 18.6%
viability, T/C [16]: 11.9%
viability, T/C (second compound 10 µM, first compound 0.00316 µM): 60.4%
viability, T/C (second compound 10 µM, first compound 0.01 µM): 61.9%
viability, T/C [17]: 55.4%
viability, T/C [18]: 26.9%
viability, T/C [19]: 17.3%
viability, T/C [20]: 12.9%

CC1COCCN1c1cc(C2(S(C)(=N)=O)CC2)nc(-c2ccnc3[nH]ccc23)n1 (stereo not given) + Cc1ccccc1N=Nc1ccc(NC(=O)c2ccnn2C)c(C)c1
IC50 (second compound 0.1 µM): 2080 nM
IC50 (second compound 0.316 µM): 2000 nM
IC50 (second compound 1 µM): 1960 nM
IC50 (second compound 3.16 µM): 2040 nM
IC50 (second compound 10 µM): 1030 nM
viability, T/C [1]: 87%
viability, T/C [2]: 110%
viability, T/C [3]: 86.5%
viability, T/C [4]: 83.6%
viability, T/C [21]: 31%
viability, T/C [22]: 14.4%
viability, T/C [5]: 87.8%
viability, T/C [6]: 78%
viability, T/C [7]: 78.6%
viability, T/C [8]: 89.7%
viability, T/C [23]: 27.7%
viability, T/C [24]: 13.4%
viability, T/C [9]: 89.2%
viability, T/C [10]: 123%
viability, T/C [11]: 86.8%
viability, T/C [12]: 66.8%
viability, T/C [25]: 39.9%
viability, T/C [26]: 16%
viability, T/C [13]: 90.8%
viability, T/C [14]: 76.9%
viability, T/C [15]: 97.9%
viability, T/C [16]: 79.3%
viability, T/C [27]: 31.8%
viability, T/C [28]: 15.3%
viability, T/C [17]: 69.5%
viability, T/C [18]: 70.1%
viability, T/C [19]: 56.6%
viability, T/C [20]: 55.5%
viability, T/C [29]: 28.9%
viability, T/C [30]: 17.1%

COc1ccc([C@@H](O)c2cc(-c3ncnc4cc(N5CCOCC5)ccc34)c(F)cc2Cl)nn1 + Cc1ccccc1N=Nc1ccc(NC(=O)c2ccnn2C)c(C)c1
IC50 (second compound 0.1 µM): 1460 nM
IC50 (second compound 0.316 µM): 816 nM
IC50 (second compound 1 µM): 945 nM
IC50 (second compound 3.16 µM): 775 nM
IC50 (second compound 10 µM): 356 nM
viability, T/C [1]: 96.9%
viability, T/C [2]: 102%
viability, T/C [3]: 76.2%
viability, T/C [4]: 62.8%
viability, T/C [21]: 29.8%
viability, T/C [22]: 11.7%
viability, T/C [5]: 76.4%
viability, T/C [6]: 99.5%
viability, T/C [7]: 63.1%
viability, T/C [8]: 47.3%
viability, T/C [23]: 23.1%
viability, T/C [24]: 11%
viability, T/C [9]: 74.1%
viability, T/C [10]: 91.7%
viability, T/C [11]: 81.6%
viability, T/C [12]: 45.5%
viability, T/C [25]: 28.2%
viability, T/C [26]: 12%
viability, T/C [13]: 73.8%
viability, T/C [14]: 77.2%
viability, T/C [15]: 58%
viability, T/C [16]: 49.4%
viability, T/C [27]: 25.1%
viability, T/C [28]: 12.7%
viability, T/C [17]: 63.2%
viability, T/C [18]: 45.6%
viability, T/C [19]: 58.6%
viability, T/C [20]: 31.9%
viability, T/C [29]: 21.3%
viability, T/C [30]: 10%

Nc1ncn(C2CC(O)C(CO)S2)c(=O)n1 (stereo not given) + Cc1ccccc1N=Nc1ccc(NC(=O)c2ccnn2C)c(C)c1
IC50 (second compound 0.1 µM): 90.5 nM
IC50 (second compound 0.316 µM): 80.4 nM
IC50 (second compound 1 µM): 63.9 nM
IC50 (second compound 3.16 µM): 109 nM
IC50 (second compound 10 µM): 56.9 nM
viability, T/C (second compound 0.1 µM, first compound 0.000949 µM): 116%
viability, T/C (second compound 0.1 µM, first compound 0.003 µM): 87.8%
viability, T/C [31]: 83.4%
viability, T/C [32]: 59.1%
viability, T/C [33]: 60.5%
viability, T/C [34]: 28.6%
viability, T/C (second compound 0.316 µM, first compound 0.000949 µM): 111%
viability, T/C (second compound 0.316 µM, first compound 0.003 µM): 63.5%
viability, T/C [35]: 105%
viability, T/C [36]: 70.2%
viability, T/C [37]: 47.7%
viability, T/C [38]: 26.6%
viability, T/C (second compound 1 µM, first compound 0.000949 µM): 91.5%
viability, T/C (second compound 1 µM, first compound 0.003 µM): 92.7%
viability, T/C [39]: 98.7%
viability, T/C [40]: 67.5%
viability, T/C [41]: 41.4%
viability, T/C [42]: 20.8%
viability, T/C (second compound 3.16 µM, first compound 0.000949 µM): 52.2%
viability, T/C (second compound 3.16 µM, first compound 0.003 µM): 72.7%
viability, T/C [43]: 72.2%
viability, T/C [44]: 66.2%
viability, T/C [45]: 54.5%
viability, T/C [46]: 18.1%
viability, T/C (second compound 10 µM, first compound 0.000949 µM): 73.6%
viability, T/C (second compound 10 µM, first compound 0.003 µM): 67.5%
viability, T/C [47]: 65.7%
viability, T/C [48]: 62.1%
viability, T/C [49]: 40.8%
viability, T/C [50]: 28.9%

O=C(C=Cn1cnc(-c2cc(C(F)(F)F)cc(C(F)(F)F)c2)n1)NNc1cnccn1 + Cc1ccccc1N=Nc1ccc(NC(=O)c2ccnn2C)c(C)c1
IC50 (second compound 0.1 µM): 17.6 nM
IC50 (second compound 0.316 µM): < 9.49 nM
IC50 (second compound 1 µM): < 9.49 nM
IC50 (second compound 3.16 µM): < 9.49 nM
IC50 (second compound 10 µM): < 9.49 nM
viability, T/C [31]: 67.2%
viability, T/C [32]: 35.2%
viability, T/C [33]: 17.2%
viability, T/C [34]: 11.2%
viability, T/C (second compound 0.1 µM, first compound 0.949 µM): 9.1%
viability, T/C (second compound 0.1 µM, first compound 3 µM): 7.11%
viability, T/C [35]: 37.7%
viability, T/C [36]: 25.4%
viability, T/C [37]: 16.2%
viability, T/C [38]: 12.2%
viability, T/C (second compound 0.316 µM, first compound 0.949 µM): 10.2%
viability, T/C (second compound 0.316 µM, first compound 3 µM): 5.73%
viability, T/C [39]: 37.8%
viability, T/C [40]: 29.9%
viability, T/C [41]: 19.4%
viability, T/C [42]: 11.9%
viability, T/C (second compound 1 µM, first compound 0.949 µM): 8.42%
viability, T/C (second compound 1 µM, first compound 3 µM): 5.99%
viability, T/C [43]: 47.9%
viability, T/C [44]: 33.7%
viability, T/C [45]: 16.9%
viability, T/C [46]: 11.4%
viability, T/C (second compound 3.16 µM, first compound 0.949 µM): 8.44%
viability, T/C (second compound 3.16 µM, first compound 3 µM): 7.46%
viability, T/C [47]: 34.6%
viability, T/C [48]: 22.8%
viability, T/C [49]: 18.5%
viability, T/C [50]: 13.8%
viability, T/C (second compound 10 µM, first compound 0.949 µM): 9.78%
viability, T/C (second compound 10 µM, first compound 3 µM): 7.95%
